Laboratory results from ChEMBL document CHEMBL1155766, “Secondary metabolites from the roots of Astragalus zahlbruckneri” (J Nat Prod, 2001).
The source made the active and inactive calls. No cut-off for these calls is given here.

Biological target: T1, Sex hormone-binding globulin (Homo sapiens) (UniProt P04278)
T1 sequence (whole entry): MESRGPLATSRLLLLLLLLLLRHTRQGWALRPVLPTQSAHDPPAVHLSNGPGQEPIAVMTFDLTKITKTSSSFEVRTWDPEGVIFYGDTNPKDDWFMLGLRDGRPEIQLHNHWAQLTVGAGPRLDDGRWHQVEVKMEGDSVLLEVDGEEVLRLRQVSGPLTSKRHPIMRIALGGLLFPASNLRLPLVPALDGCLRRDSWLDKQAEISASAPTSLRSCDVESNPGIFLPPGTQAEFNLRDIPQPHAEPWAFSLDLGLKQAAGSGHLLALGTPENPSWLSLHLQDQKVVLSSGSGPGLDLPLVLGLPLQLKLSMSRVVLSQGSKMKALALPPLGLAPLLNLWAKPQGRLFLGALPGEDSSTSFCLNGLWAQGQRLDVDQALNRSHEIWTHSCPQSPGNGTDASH
Assay: Binding affinity to human sex hormone binding globulin

- Activity: Active
SMILES: COc1cc([C@@H]2O[C@@H](c3ccc(O)c(OC)c3)[C@H](CO)[C@H]2CO)ccc1O
